Measured values reported in patent US4246343A, “Microbial detection and enumeration method and apparatus” (University of Virginia and National Aeronautics & Space …, priority 1979, dated 1981).
Structures can show the parent of a compound that is named as a salt. Where two headings read alike, the source gives them in different places.

Legend:
E. coli (ATCC) = assay: Electroanalytically determined MIC, gram-negative bacteria; type: cell-based, Escherichia coli, "Seattle Strain" ATCC 25922
Source text: (§1) Identical lots of media and antimicrobial agents were used in the susceptibility tests performed. The media used were trypticase soy agar (TSA) and TSB from Baltimore Biological Laboratories (BBL), Cockeysville, Maryland. The 12 antimicrobial agents used in the experiments, which were chosen on the basis of their clinical usefulness, were laboratory reference standards including the following antibiotics: penicillin G potassium, caphalothin sodium, tobramycin, vancomycin hydrochloride and streptomycin sulfate obtained from Eli Lilly and Co.; tetracycline and carbenicillin obtained from Pfizer Laboratories; ampicillin and sodium nafcillin from Wyeth Laboratories; kanamycin and methicillin from Bristol Laboratories; gentamicin from Schering.
(§2) The following cultures were obtained from Hoffmann-LaRoche, Inc. and were derived from the American Type Culture Collection (ATCC) organisms as indicated: Escherichia coli, "Seattle Strain" ATCC 25922, Klebsiella pneumoniae ATCC 27736; Pseudomonas aeruginosa, ATCC 9721. These bacteria are gram negative bacteria. The following bacteria are gram positive: Staphylococcus aureus, "Seattle Strain" ATCC 25923; Staphylococcus epiderdimis ATCC 14990; and Streptococcus pyogenes, ATCC 10389. In addition, clinical specimens of these same six organisms were obtained from sensitivity isolates from the University of Virginia Hospital Department of Clinical Pathology Bacteriology Section. These organisms, both pathogenic and non-pathogenic (Staphylococcus epidermidis), were chosen because they are some of the most frequently encountered organisms in clinical isolates.
(§3) Inocula were prepared by making a 100-fold dilution×2 of an overnight TSB culture of the organism to be tested in sterile TSB prewarmed to 35° C. Thus, the total dilution of overnight stock was 10^-4. From the 10^-4 series, 0.3 ml was transferred to a test tube (Falcon, disposable #2057) containing 2.7 ml of TSB if the growth control, or 2.6 ml of TSB plus 0.1 ml of a particular concentration of an appropriate antibiotic to be tested. The antibiotic was weighed on an analytical balance, according to each agent's activity standard, and diluted with sterile distilled water in a volumetric flask to achieve a stock solution of 1000 mcg/ml which was then frozen in small aliquots. Further dilutions as necessary for susceptibility testing were also achieved through the addition of sterile distilled water to this stock concentration. Viable counts were made by plating appropriate dilutions from the 10^-4 series on TSA and counting colonies after 24 hours incubation at 35° C. Viable counts were also made on each microorganism at the time of MDC and again at the end of the 24 hour test period to confirm the minimum inhibitory concentration (MIC).
(§4) The experimental apparatus used in this study to monitor the inhibition of growth due to the addition of antibiotics consisted of test tubes, up to and including 8, size 17×100 mm, each containing a sterilized (by boiling) Pt-SCE combination electrode (Sargent-Welch, S-30101-15), plus TSB, microorganisms, and antibiotic where appropriate, positioned in a 35° C. heating block. Leads from the electrode were connected to a high impedance (greater than 10^8 ohms) potentiometer, or voltage following device, which in turn was connected to a strip chart recorder (Hewlett-Packard type 680M). Microbial growth was measured by an increase in voltage in the negative direction with time as recorded on the strip chart recorder.
(§5) FIG. 12 is a stripchart recording of the antimicrobial response curve of a four channeled expriment involving a clinical specimen of the non-hydrogenproducing, Gram-positive bacteria Staphylococcus epidermidis treated with 0.012, 0.5 and 1.0 mcg/ml of the antibiotic ampicillin as shown in curves B, C and D respectively. […]

E. coli (clinical) = assay: as above; type: cell-based, Escherichia coli
Source text: as §1, §2, §3, §4, §5

K. pneumoniae (ATCC) = assay: Electroanalytically determined MIC / antimicrobial response curve, gram-negative bacteria; type: cell-based, Klebsiella pneumoniae ATCC 27736
Source text: as §1, §2, §3, §4, §5

K. pneumoniae (clinical) = assay: Electroanalytically determined MIC, gram-negative bacteria; type: cell-based, Klebsiella pneumoniae
Source text: as §1, §2, §3
as §4, with “recorder. […]” for “recorder.”

P. aeruginosa (ATCC) = assay: as above; type: cell-based, Pseudomonas aeruginosa, ATCC 9721
Source text: as §1, §2, §3, §4, §5

P. aeruginosa (clinical) = assay: as above; type: cell-based, Pseudomonas aeruginosa
Source text: as §1, §2, §3, §4, §5

S. aureus (ATCC) = assay: Electroanalytically determined MIC, gram-positive bacteria; type: cell-based, "Seattle Strain" ATCC 25923; conditions: Staphylococcus aureus
Source text: as §1, §2, §3, §4, §5

S. aureus (clinical) = assay: as above; type: cell-based; conditions: Staphylococcus aureus
Source text: as §1, §2, §3, §4, §5

S. epidermidis (ATCC) = assay: as above; type: cell-based, Staphylococcus epiderdimis ATCC 14990; conditions: Staphylococcus epidermidis
Source text: as §1, §2, §3, §4, §5

[1] = system: S. epidermidis (clinical); assay: Electroanalytically determined MIC / antimicrobial response curve, gram-positive bacteria; type: cell-based, Staphylococcus epidermidis; conditions: for MIC: Staphylococcus epidermidis
Source text: as §1, §2, §3, §4, §5

S. pyogenes (clinical) = assay: Electroanalytically determined MIC, gram-positive bacteria; type: cell-based; conditions: Streptococcus pyogenes, 24 h
Source text: as §1, §2, §3, §4, §5

S. pyogenes (ATCC) = assay: as above; type: cell-based, ATCC 10389; conditions: Streptococcus pyogenes, 24 h
Source text: as §1, with “Schering. […]” for “Schering.”
as §4, with “Leads from the electrode were connected to a high impedance (greater than 10^8 ohms) potentiometer, or voltage following device, which in turn was connected to a strip chart recorder (Hewlett-Packard type 680M).” left out, “recorder. […]” for “recorder.”

[2] = Pseudomonas aeruginosa, P. aeruginosa (ATCC), TSB, 35° C., 24 hour test period, read-out: MIC
[3] = Pseudomonas aeruginosa, P. aeruginosa (clinical), TSB, 35° C., 24 hour test period, read-out: MIC
[4] = S. aureus (ATCC), TSB, 35° C., 24 hour test period, read-out: MIC
[5] = S. aureus (clinical), TSB, 35° C., 24 hour test period, read-out: MIC
[6] = S. epidermidis (ATCC), TSB, 35° C., 24 hour test period, read-out: MIC
[7] = S. epidermidis (clinical), TSB, 35° C., 24 hour test period, read-out: MIC
[8] = Escherichia coli, E. coli (ATCC), TSB, 35° C., 24 hour test period, read-out: MIC
[9] = Escherichia coli, E. coli (clinical), TSB, 35° C., 24 hour test period, read-out: MIC
[10] = Klebsiella pneumoniae, K. pneumoniae (ATCC), TSB, 35° C., 24 hour test period, read-out: MIC

Molecule	MIC (E. coli (ATCC); Escherichia coli, 24 h) [µg/mL]	MIC (E. coli (clinical); Escherichia coli, 24 h) [µg/mL]	MIC (K. pneumoniae (ATCC); Klebsiella pneumoniae, 24 h) [µg/mL]	MIC (P. aeruginosa (ATCC); Pseudomonas aeruginosa, 24 h) [µg/mL]	MIC (P. aeruginosa (clinical); Pseudomonas aeruginosa, 24 h) [µg/mL]	MIC (S. aureus (ATCC); 24 h) [µg/mL]	MIC (S. aureus (clinical); 24 h) [µg/mL]	MIC (S. epidermidis (ATCC); 24 h) [µg/mL]	MIC ([1]; 24 h) [µg/mL]	other results
gentamicin										MIC (E. coli (ATCC); E. coli (ATCC), TSB, 35° C., 24 hour test period): 0.5 µg/mL; MIC (E. coli (clinical); E. coli (clinical), TSB, 35° C., 24 hour test period): 1.0 µg/mL; MIC (K. pneumoniae (ATCC); K. pneumoniae (ATCC), TSB, 35° C., 24 hour test period): 0.5 µg/mL; MIC (K. pneumoniae (clinical); K. pneumoniae (clinical), TSB, 35° C., 24 hour test period): 0.5 µg/mL; MIC (P. aeruginosa (ATCC); P. aeruginosa (ATCC), TSB, 35° C., 24 hour test period): 2.0 µg/mL; MIC (P. aeruginosa (clinical); P. aeruginosa (clinical), TSB, 35° C., 24 hour test period): 4.0 µg/mL
NC[C@H]1O[C@H](O[C@H]2[C@H](O)[C@@H](O[C@H]3O[C@H](CO)[C@@H](O)[C@H](N)[C@H]3O)[C@H](N)C[C@@H]2N)[C@H](O)[C@@H](O)[C@@H]1O [Kana, kanamycin]	3	4	3	32 to 64	64	0.2	0.5 to 1	0.4	0.6	MIC (K. pneumoniae (clinical); Klebsiella pneumoniae, 24 h): 4 µg/mL
[H]/N=C(/N)N[C@H]1[C@H](O)[C@@H](O)[C@H](O[C@@H]2O[C@@H](C)[C@](O)(C=O)[C@H]2O[C@@H]2O[C@@H](CO)[C@H](O)[C@@H](O)[C@@H]2NC)[C@@H](N/C(N)=N\[H])[C@@H]1O [Strep, streptomycin sulfate]	9	9	5 to 6			8	8	4	4 to 6	MIC (K. pneumoniae (clinical); Klebsiella pneumoniae, 24 h): 6 µg/mL; MIC (S. pyogenes (clinical)): 0.1 µg/mL; MIC (S. pyogenes (ATCC)): 0.1 µg/mL
CC(=O)OCC1=C(C(=O)O)N2C(=O)[C@@H](NC(=O)Cc3cccs3)[C@H]2SC1 [Ceph, cephalothin]	8	9	1	> 360	> 360	0.15 to 0.2	0.8 to 1.6	0.1	0.5 to 1	growth inhibition (antimicrobial response curve, FIG. 13) (K. pneumoniae (ATCC); K. pneumoniae ATCC, 0.3, 0.4, 0.5, 1.0 and 2.0 mcg/ml): increasingly inhibited
NC[C@H]1O[C@H](O[C@H]2[C@H](O)[C@@H](O[C@H]3O[C@H](CO)[C@@H](O)[C@H](N)[C@H]3O)[C@H](N)C[C@@H]2N)[C@H](N)C[C@@H]1O [Tobra, tobramycin]										MIC (P. aeruginosa (ATCC); [2]): 4 µg/mL; MIC (P. aeruginosa (clinical); [3]): 8 µg/mL
CN(C)[C@@H]1C(=O)C(C(N)=O)=C(O)[C@@]2(O)C(=O)C3=C(O)c4c(O)cccc4[C@@](C)(O)[C@H]3C[C@@H]12 [Tetra, tetracycline]	1	4	5 to 6	64	64	2	2	1 to 2	2	MIC (K. pneumoniae (clinical); Klebsiella pneumoniae, 24 h): 5 to 6 µg/mL
COc1cccc(OC)c1C(=O)N[C@@H]1C(=O)N2[C@@H]1SC(C)(C)[C@@H]2C(=O)O [Meth, methicillin]										MIC (S. aureus (ATCC); [4]): 0.7 µg/mL; MIC (S. aureus (clinical); [5]): 0.7 µg/mL; MIC (S. epidermidis (ATCC); [6]): 0.5 to 1 µg/mL; MIC [1, 7]: 0.5 to 1 µg/mL
CCOc1ccc2ccccc2c1C(=O)N[C@@H]1C(=O)N2[C@@H]1SC(C)(C)[C@@H]2C(=O)O [Naf, sodium nafcillin]										MIC (S. aureus (ATCC); [4]): 0.5 µg/mL; MIC (S. aureus (clinical); [5]): 0.5 µg/mL; MIC (S. epidermidis (ATCC); [6]): 0.5 to 1 µg/mL; MIC [1, 7]: 0.5 to 1 µg/mL
CC1(C)S[C@@H]2[C@H](NC(=O)Cc3ccccc3)C(=O)N2[C@H]1C(=O)O [Pen G, penicillin G potassium]						0.05	0.05	0.08 to 0.1	0.1	
CN[C@H](CC(C)C)C(=O)N[C@H]1C(=O)N[C@@H](CC(N)=O)C(=O)N[C@H]2C(=O)N[C@H]3C(=O)N[C@H](C(=O)N[C@H](C(=O)O)c4cc(O)cc(O)c4-c4cc3ccc4O)[C@H](O)c3ccc(c(Cl)c3)Oc3cc2cc(c3O[C@@H]2O[C@H](CO)[C@@H](O)[C@H](O)[C@H]2O[C@H]2C[C@](C)(N)[C@H](O)[C@H](C)O2)Oc2ccc(cc2Cl)[C@H]1O [Vanco, vancomycin hydrochloride]						1	2	1.5	2 to 3	MIC (S. pyogenes (clinical)): 0.5 µg/mL; MIC (S. pyogenes (ATCC)): 0.1 to 0.5 µg/mL
CC1(C)S[C@@H]2[C@H](NC(=O)C(C(=O)O)c3ccccc3)C(=O)N2[C@H]1C(=O)O (stereo partly shown) [Carb, carbenicillin]										MIC (E. coli (ATCC); [8]): 4 µg/mL; MIC (E. coli (clinical); [9]): 5 µg/mL; MIC (K. pneumoniae (ATCC); [10]): > 128 µg/mL; MIC (K. pneumoniae (clinical); Klebsiella pneumoniae, K. pneumoniae (clinical), TSB, 35° C., 24 hour test period, read-out: MIC): > 128 µg/mL; MIC (P. aeruginosa (ATCC); [2]): 64 µg/mL; MIC (P. aeruginosa (clinical); [3]): 64 µg/mL
CC1(C)S[C@@H]2[C@H](NC(=O)[C@H](N)c3ccccc3)C(=O)N2[C@H]1C(=O)O [Amp, ampicillin]				> 128	> 128					MIC (E. coli (ATCC); [8]): 4 µg/mL; MIC (E. coli (clinical); [9]): 6 µg/mL; MIC (K. pneumoniae (ATCC); [10]): 32 µg/mL; MIC (S. aureus (ATCC); [4]): 0.12 to 0.6 µg/mL; MIC (S. aureus (clinical); [5]): 0.12 µg/mL; MIC (S. epidermidis (ATCC); [6]): 1 µg/mL; growth inhibition (antimicrobial response curve, FIG. 12) ([1]; S. epidermidis clinical specimen, 0.012, 0.5 and 1.0 mcg/ml): increasingly inhibited; MIC [1, 7]: 0.8 to 1 µg/mL
